Values quoted from earlier work in patent publication US8716300B2, “Frequency modulated drug delivery (FMDD)” (Synthonics, Inc., priority 2008, dated 2014).

Experiments:
MES induced seizures = conditions: combined treatment of dizocilpine with valproate
reserpinized rats = conditions: remacemide 5 mg/kg administered with lowest effective dose of levodopa (75 mg/kg)

| Compound | protection against MES induced seizures (MES induced seizures) [%] | reduction in the ED50 of valproate (MES induced seizures; MES induced seizures) [fold] | increase in horizontal motor activity over levodopa given alone (reserpinized rats) [fold] |
| --- | --- | --- | --- |
| C[C@]12N[C@H](Cc3ccccc31)c1ccccc12 [dizocilpine] | 50 | ~3 |  |
| CC(Cc1ccccc1)(NC(=O)CN)c1ccccc1 (stereo not drawn) [remacemide] |  |  | 9 |
